Structures are written as SMILES. “And” between values parts separate entries of the source, which are not always exact repeats. Equal values may be shown once. The source made the active and inactive calls. Where only a bound is given, the exact number is not on record here.

Test [1] can be described thus: viability loss in human Jurkat cells – cell-based, luminescence, cytotoxicity control for P. falciparum gametocyte viability project, dose response (AID 1117277).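 Further: potency reflects loss of cellular ATP meaning fewer viable cells.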 The test is classed as functional.
In test [2] the target is T1, Estrogen receptor (Homo sapiens, UniProt P03372).
T1 sequence (P03372 whole entry): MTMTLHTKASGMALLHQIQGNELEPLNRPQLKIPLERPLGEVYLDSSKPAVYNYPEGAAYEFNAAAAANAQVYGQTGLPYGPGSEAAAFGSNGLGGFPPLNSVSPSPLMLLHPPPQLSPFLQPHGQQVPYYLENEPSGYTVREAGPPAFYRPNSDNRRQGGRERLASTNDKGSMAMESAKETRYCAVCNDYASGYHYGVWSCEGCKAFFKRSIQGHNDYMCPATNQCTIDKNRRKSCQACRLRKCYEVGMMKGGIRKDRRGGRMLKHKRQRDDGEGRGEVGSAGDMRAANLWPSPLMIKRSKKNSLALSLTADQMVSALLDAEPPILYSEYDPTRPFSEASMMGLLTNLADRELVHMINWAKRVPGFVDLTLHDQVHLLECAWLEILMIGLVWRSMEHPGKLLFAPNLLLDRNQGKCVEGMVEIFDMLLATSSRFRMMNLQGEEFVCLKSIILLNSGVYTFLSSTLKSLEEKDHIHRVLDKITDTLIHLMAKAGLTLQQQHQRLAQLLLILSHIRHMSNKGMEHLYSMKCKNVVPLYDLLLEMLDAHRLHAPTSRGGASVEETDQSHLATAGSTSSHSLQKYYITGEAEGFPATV

Test [3] in a line: viability inhibitors of stage V gametocytes – luminescence, dose response (AID 1117278).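 Further: gametocytes exposed to compound for 24 hours.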 The test is classed as functional, cell-based.
The target in test [4] is T2, Estrogen receptor beta (Homo sapiens, UniProt Q92731).
The target in test [5] is T2, Estrogen receptor beta. In words: blockers of SRC-3 recruitment to ERβ – biochemical, ELISA, streptavidin-HRP readout, orthogonal assay, confirmation (AID 1060).
Test [6] concerns the target T3, Heat shock factor protein 1 (Mus musculus, UniProt P38532).
T3 sequence (P38532 whole entry): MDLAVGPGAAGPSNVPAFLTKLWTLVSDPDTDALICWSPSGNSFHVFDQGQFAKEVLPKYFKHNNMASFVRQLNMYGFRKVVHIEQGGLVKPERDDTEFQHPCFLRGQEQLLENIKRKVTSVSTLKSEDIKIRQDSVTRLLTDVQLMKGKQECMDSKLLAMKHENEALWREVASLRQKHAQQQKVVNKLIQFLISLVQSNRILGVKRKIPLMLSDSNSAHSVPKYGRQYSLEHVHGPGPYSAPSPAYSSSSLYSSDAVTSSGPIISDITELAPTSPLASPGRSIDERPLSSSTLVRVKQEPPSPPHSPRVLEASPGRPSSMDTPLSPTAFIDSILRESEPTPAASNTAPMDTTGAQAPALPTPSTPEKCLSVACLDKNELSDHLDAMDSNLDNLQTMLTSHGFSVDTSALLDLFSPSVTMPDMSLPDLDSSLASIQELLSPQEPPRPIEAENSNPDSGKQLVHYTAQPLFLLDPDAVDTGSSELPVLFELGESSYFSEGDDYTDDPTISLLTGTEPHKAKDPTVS
Description: decrease of HSF1-responsive luciferase luminescence – cell-based, NIH3T3, dose retest, confirmation (AID 2382).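 Further: NIH3T3 fibroblasts with HSF1-driven luciferase reporter stressed by proteasome inhibitor MG132; luminescence from HSF1-driven luciferase expression after 8 hours of MG132 stress.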 It is filed as functional.

The target in test [7] is T4, Mannose-6-phosphate isomerase (Homo sapiens, UniProt P34949).
T4 sequence (P34949 whole entry): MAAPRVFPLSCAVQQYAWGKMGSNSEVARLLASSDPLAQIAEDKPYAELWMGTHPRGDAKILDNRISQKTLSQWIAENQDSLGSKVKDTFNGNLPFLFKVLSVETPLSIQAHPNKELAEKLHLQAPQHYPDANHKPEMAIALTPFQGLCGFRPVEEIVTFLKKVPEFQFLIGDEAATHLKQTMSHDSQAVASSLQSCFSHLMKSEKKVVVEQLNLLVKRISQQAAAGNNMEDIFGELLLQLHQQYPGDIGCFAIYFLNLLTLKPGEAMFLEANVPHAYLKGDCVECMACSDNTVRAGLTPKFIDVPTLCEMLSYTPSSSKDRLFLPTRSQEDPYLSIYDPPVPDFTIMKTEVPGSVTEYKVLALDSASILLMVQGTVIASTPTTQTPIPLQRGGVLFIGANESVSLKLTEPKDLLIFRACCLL
In words: MPI inhibition at elevated mannose 6-phosphate – biochemical, fluorescence intensity, high mannose 6-phosphate, primary screen (AID 1220).

For test [8], the target named is Major prion protein (Homo sapiens, UniProt P04156). It is filed as functional, cell-based.
Test [9] is described as follows: cells.
Test [10] deals with T5, Coagulation factor XII (Homo sapiens, UniProt P00748).
T5 sequence (P00748 whole entry): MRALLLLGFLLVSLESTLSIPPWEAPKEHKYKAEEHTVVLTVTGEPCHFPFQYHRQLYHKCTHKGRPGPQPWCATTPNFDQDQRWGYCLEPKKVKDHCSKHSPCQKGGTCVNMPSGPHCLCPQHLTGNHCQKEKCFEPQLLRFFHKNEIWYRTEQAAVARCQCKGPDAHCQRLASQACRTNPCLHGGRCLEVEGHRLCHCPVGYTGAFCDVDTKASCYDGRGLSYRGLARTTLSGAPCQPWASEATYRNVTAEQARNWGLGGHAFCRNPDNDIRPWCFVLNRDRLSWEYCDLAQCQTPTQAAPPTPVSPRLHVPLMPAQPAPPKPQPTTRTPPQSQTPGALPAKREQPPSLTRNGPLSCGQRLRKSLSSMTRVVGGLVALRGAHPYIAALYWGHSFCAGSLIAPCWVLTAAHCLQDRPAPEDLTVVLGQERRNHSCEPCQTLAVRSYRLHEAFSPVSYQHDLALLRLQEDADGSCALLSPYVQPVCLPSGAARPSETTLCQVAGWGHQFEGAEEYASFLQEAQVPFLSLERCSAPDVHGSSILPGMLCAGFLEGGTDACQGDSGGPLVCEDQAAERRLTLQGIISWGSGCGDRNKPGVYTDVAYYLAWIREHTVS
It is filed as functional.

Test [11] is described as follows: viability loss in THP-1 monocytes – THP-1 cells, cytotoxicity control for Vif-APOBEC3G degradation inhibitor project, dose response (AID 1117359). The test is classed as functional. The note with it: THP-1.
The nature of test [12]: toxicity to human hepatoma HepG2 cells – cell-based, cherry-picked samples, cytotoxicity control, dose response (AID 1159577). The test is classed as functional.
Test [13] can be described thus: blockers of bursicon-stimulated LGR2 cAMP reporter – cell-based, HEK293, CRE-luciferase reporter, cherry pick, set 2, dose response (AID 743343).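 Further: transfected cells were stimulated with diluted bursicon conditioned medium after compound addition.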 It is filed as functional. In general terms: In a reporter assay the amount or activity of a reporter protein is the signal.
The nature of test [14]: blockade of melanocortin 4 receptor signaling – cell-based, plate reader, cherry pick, counter-screen for LGR2 antagonist project, dose response (AID 743444).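 Further: transfected HEK 293 cells stimulated with alpha-MSH peptide; potency of inhibitors of the alpha-MSH evoked signal.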 It is filed as functional.
The nature of test [15]: P. falciparum Dd2 growth inhibitors, dose response, SYBR Green, cherry-picked samples (AID 1159567). It is filed as functional, cell-based.
Test [16] is described as follows: toxicity toward HepG2 liver cells – cell-based, plate reader, cherry-pick, antagonist series, cytotoxicity control, dose response (AID 743416). It is filed as functional.
A short description of test [17]: A549 cell cytotoxicity, dose response, cytotoxicity control, plate reader, cherry-pick, antagonist series (AID 743412). The test is classed as functional, cell-based.
A short description of test [18]: toxicity to human HepG2 hepatoma cells – cell-based, plate reader, dry powder samples, cytotoxicity control, dose response (AID 1159569).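 Further: inhibitor potency with signal falling toward the positive control level.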 It is filed as functional.
Test [19] can be described thus: growth inhibition of PfATP4-mutant resistant parasites – NITD609-resistant line, SYBR Green, dry powder, dose response (AID 1159571).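 Further: parasites synchronized at ring stage by sorbitol before testing.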 The test is classed as functional, cell-based.
The nature of test [20]: growth inhibition of yeast DHODH-expressing 3D7 parasites – SYBR Green, dry powder samples, dose response (AID 1159570).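 Further: parasite growth measured after 72 hours of compound exposure.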 It is filed as functional, cell-based.
A short description of test [21]: Dd2 malaria parasite growth inhibition potency – SYBR Green, dry powder samples, dose response (AID 1159566).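 Further: potency for growth inhibition with lower SYBR green DNA signal.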 It is filed as functional, cell-based.
Test [22] deals with Vero. In words: mammalian cell viability reduction – secondary assay, cytotoxicity control for West Nile virus antiviral project, dose response (AID 1650). It is filed as functional. The note with it: Chlorocebus sabaeus.
In test [23] the target is T6, DNA repair protein RAD52 homolog (Homo sapiens, UniProt P43351).
T6 sequence (P43351 whole entry): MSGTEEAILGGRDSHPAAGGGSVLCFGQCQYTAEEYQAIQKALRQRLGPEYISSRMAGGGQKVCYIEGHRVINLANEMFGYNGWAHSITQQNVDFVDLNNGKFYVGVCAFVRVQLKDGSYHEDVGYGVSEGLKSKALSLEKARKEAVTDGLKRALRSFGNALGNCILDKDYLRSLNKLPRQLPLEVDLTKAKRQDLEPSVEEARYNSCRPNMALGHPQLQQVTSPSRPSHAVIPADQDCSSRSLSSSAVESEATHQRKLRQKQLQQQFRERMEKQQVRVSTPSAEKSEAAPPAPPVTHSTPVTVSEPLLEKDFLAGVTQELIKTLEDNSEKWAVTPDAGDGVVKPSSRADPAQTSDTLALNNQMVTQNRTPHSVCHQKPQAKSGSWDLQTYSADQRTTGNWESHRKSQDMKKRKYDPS
It is filed as functional, biochemical.

For `COc1ccccc1NC(=O)c1ccccc1NC(=O)c1cc(Cl)ccc1NC(=O)c1ccco1`, the figures for the IC50 in test [1], in test [2] and in test [3] were > 83.3 µM (inactive), 12.5 µM (active) and > 109 µM (inactive), respectively.
In the case of `CN1C(=O)CSc2ccc(NC(=O)N3CCC(N4CCCCC4)CC3)cc21`, the IC50 (commonly the concentration that gives 50% inhibition) was 6.24 µM (active) in [4]; 11.8 µM (active) in [2]; < 77 µM (not active) and < 23 nM (not active) in [5].
Consider `O=C1CC(=O)Nc2cc(S(=O)(=O)N3CCN(c4cccc(C(F)(F)F)c4)CC3)ccc2N1`, for which the IC50 was > 83.3 µM (inactive) in test [1] and > 109 µM (inactive) in [3].
For `c1ccc(OCc2nnc3sc(C4COc5ccccc5O4)nn23)cc1` (configuration not stated), the results for the IC50 in test [4], in [2] and in [5] were > 50 µM (not active), 9.55 µM (active) and < 23 nM (not active), respectively.
As for `COc1ccc(OC)c(C(=O)c2ccc(C(=O)O)cc2)c1`, the IC50 in test [1] is > 83.3 µM (inactive); in test [3], > 109 µM (inactive). For the same compound, the EC50 (as a rule, the concentration at which the effect is half-maximal) in test [6] is on record as > 195 µM (not active).
Take `CCOC(=O)c1c(-c2ccc(C)s2)csc1N`: the IC50 is 35.4 µM (active) in test [7], 104 µM (inactive) in test [8] and > 138 µM (inactive) in [9].
With `COc1ccc(OC)c(NC(=O)CC2C(=O)NCCN2C(=O)Nc2cccc(Cl)c2)c1` (configuration not stated), the IC50 in [10] was > 50 µM (inactive). The CC50 – broadly, the concentration giving 50% cytotoxicity – in test [11] was > 40 µM (active).
Consider `O=C1CC2=CC=CC(=O)C(=O)C2=C(O)O1`, for which the CC50 in test [11] is > 40 µM (active).
On to `N#Cc1cccc(-c2ccc([C@@H]3[C@H](CO)N4CCCCN(C(=O)Nc5cccc(F)c5)C[C@@H]34)cc2)c1`, for which the AC50 (usually the concentration giving half of the maximal activity seen) in test [12] is 7.5 µM (active); in test [13] it was 40.6 µM (active); in [14], 47.2 µM (active); in [15], 2.18 µM (active); in test [16], > 24 µM (inactive); in [17], 16.7 µM (active).
For `C[C@@H]1CN([C@@H](C)CO)S(=O)(=O)c2ccc(C#Cc3ccccc3)cc2O[C@H]1CN(C)C(=O)C1CC1`, the AC50 was > 39 µM (inactive) in test [12] and 4.38 µM (active) in [15].
As to `COc1ccc(C#Cc2ccc3c(c2)[C@H]2[C@H](CCN2Cc2nccs2)[C@@H](CO)N3)cc1`, the AC50 is 74.7 µM (active) in [18]; 2.52 µM (active) in test [19]; 3.44 µM (active) in [20]; 1.9 µM (active) in [15]; 2.06 µM (active) in [21].
As for `OC[C@@H]1[C@H](c2ccc(C#Cc3ccccc3F)cc2)[C@H]2CN(Cc3cncnc3)CCCCN12`, the AC50 is 10.8 µM (active) in [12] and 3.54 µM (active) in test [15].
For `C[C@H](CO)N1C[C@H](C)[C@@H](CN(C)C(=O)Nc2ccc3c(c2)OCO3)Oc2ccc(NC(=O)Nc3ccc(C(F)(F)F)cc3)cc2CC1=O`, the AC50 in test [18] is > 100 µM (inactive); in test [19] it was 0.238 µM (active); in test [20], 0.406 µM (active); in test [15], 0.748 µM (active); in test [21] it was 0.276 µM (active).
On the same counts, the results for `COc1ccc(C#Cc2ccc3c(c2)[C@H]2[C@H](CCN2Cc2nccs2)[C@H](CO)N3)cc1` are 59.9 µM (active), 1.87 µM (active), 2.95 µM (active), 2.09 µM (active) and 1.76 µM (active).
On to `CCN(CC)CCNC(=O)c1cc2c(-c3cccc(OC)c3)nn(C)c2s1`, for which the CC50 in test [22] was > 100 µM (active). Also, the concentration at half-maximal activity (AC50) in [23] was 3.79 µM (active).

These data come from ChEMBL document CHEMBL1201862, “PubChem BioAssay data set” (2004).
